In US20070093436A1, “Drop1, a novel marker for carcinogenesis” (Deutsches Kresforschungszentrum Stiftung Des Offentlichen …, priority 2003, published 2007):

Assays:
Type in all cases: cell-based, human
[1] = system: Drop1 expression in GG cells; experiment: Treatment of cells with methyltransferase inhibitors, Drop1 expression by quantitative PCR
Experimental: (§1) The differential expression was validated by quantitative PCR and analyzed in the Agilent 2100 Bioanalyzer (Agilent Technologies, Waldbronn, Germany, PC Hewlett packard, Vectra VL, Hewlett packard, Boeblingen; Software Agilent 2100 Bio Sizing 1.3, Agilent Technologies, Waldbronn) or by semi-quantitative analysis of the resulting cDNA on a 2% agarose gel.
(§2) • 1 μl cDNA of the 20 μl RT-mixture (corresponding to 0.5 ng of cDNA); • 1 μl Drop1 Upper primer (5′ […] ATA 3′ corresponding to positions 8255-8278 in exon 53), 20 μM; • 1 μl Drop1 Lower primer (Lower primer 5′ […] 3′, complementary to positions 8500-8473 in exon 55), 20 μM; • 5 μl cDNA-PCR reaction buffer, 10×; • 1 μl dNTP-Mix, 10 mM; • 1 μl advantage-cDNA-polymerase mix, 50×;
(§3) Steps 1 to 3 were repeated 34 to 46 times. After individual cycles in that range, aliquots were removed and run on a gel. The amount of PCR-product from the first cycle producing a visible band of 246 bp was then quantitated using the Agilent system and an intercalating dye to detect double-stranded DNA. Under these conditions, quantitative PCR detected Drop1 plus enaptin, yet not cpg2, and the various nexins.
(§4) Treatment of cells with methyltransferase inhibitors was carried out as described by Widschwendter et al., J. Nat. Cancer Inst. 92 (2000), 826-832). All-trans-retinoic acid (ATRA) and 5-aza-deoxycytidine (Aza-CdR) were from Sigma Chemical Co. (St. Louis, Mo.). 1 mM solutions were prepared in dimethyl sulfoxide and diluted in culture medium. Cells were incubated either for 5 days, with […] Aza-CdR, for 24 h with […], or for 5 days with […] Aza-CdR followed by 24 h with 1 mM ATRA, or left untreated. They were detached with trypsin (0.05%)-EDTA (0.02%) in Dulbecco's phosphate-buffered saline (PBS), washed, and pelleted.
(§5) The possibility that promoter methylation might downregulate Drop1 was investigated.

[2] = system: Drop1 expression in M130 cells; experiment: as above
Experimental: as §1, §2, §3, §4, §5

[3] = system: Drop1 expression in SKOV-3 cells; experiment: as above
Experimental: as §1, §2, §3, §4, §5

[4] = system: Drop1 mRNA in cell lines exhibiting a low level of Drop1 (GG and M130); experiment: Treatment of cell lines exhibiting a low level of Drop1 with demethylating agents
Experimental: as §4, §5

[5] = 5 days 2.5 mM Aza-CdR, 24 h 1 mM ATRA, or 5 days Aza-CdR followed by 24 h ATRA

Compound: CC1=C(/C=C/C(C)=C/C=C/C(C)=C/C(=O)O)C(C)(C)CCC1 [ATRA, all-trans-retinoic acid]
- Increase of Drop1 expression versus cells in medium [1]: 2.5 fold
- Expression of downregulated Drop1 in cells treated with inhibitors of gene methylation [1, 5]: 1.3 × 10^−4
- Increase of Drop1 expression versus cells in medium [2]: 18 fold
- Expression of downregulated Drop1 in cells treated with inhibitors of gene methylation [2, 5]: 1.8 × 10^−2
- Increase of Drop1 expression ([3]; SKOV-3, a cell line with a physiological level of Drop1): No increase of expression
- Expression of downregulated Drop1 in cells treated with inhibitors of gene methylation ([3]; SKOV-3 cells, 5 days 2.5 mM Aza-CdR, 24 h 1 mM ATRA, or 5 days Aza-CdR followed by 24 h ATRA): 2.2 × 10^−4
- Increase of Drop1 mRNA [4]: an order of magnitude
